Reference: patent publication US8252737B2, “Antimicrobial peptides and methods of use” (priority 2004, dated 2012)
≈ marks a conversion by molar mass, not a printed value. Read-outs that look alike come from different tables or passages of the source. Square brackets hold non-standard residues; d marks the D form. Peptide text beside a SMILES is read from it.

Assays:
[1] = RP-HPLC temperature profiling (hydrophobicity and self-association/dimerization parameter PA); assay type: physicochemical; conditions: for tR (min) 5° C.: RP-HPLC retention time at 5° C. during temperature profiling (measure of hydrophobicity); for tR (min) 80° C.: RP-HPLC retention time at 80° C. during temperature profiling; for Hydrophobicity tR5: RP-HPLC retention time at pH 2, 5° C.; for Hydrophobicity tR80: RP-HPLC retention time at pH 2, 80° C.; for tR (min) Max: maximal RP-HPLC retention time during temperature profiling 5-80° C.; for PA (min) association parameter: maximal retention time difference relative to control peptide C within 5-80° C.; for PA (dimerization / self-association parameter): maximal retention time difference relative to control peptide C, 5-80° C.; for ΔtR (X-NVL) (min) 5° C.: retention time difference relative to native peptide V681 (NVL) at 5° C.; for ΔtR (X-NVL) (min) 5° C. / ΔtR (X-NVL) (min) 80° C. / ΔtR (X-PSL) (min) 5° C. / ΔtR (X-PSL) (min) 80° C.: relative hydrophobicity; for ΔtR (X-NVL) (min) 80° C.: retention time difference relative to native peptide V681 (NVL) at 80° C.; for ΔtR (X-PSL) (min) 5° C.: retention time difference relative to native peptide V681 (PSL) at 5° C.; for ΔtR (X-PSL) (min) 80° C.: retention time difference relative to native peptide V681 (PSL) at 80° C.
In short: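 RP-HPLC retention times recorded over temperature profiling from 5°C to 80°C, with retention relative to native V681 at each limit used as hydrophobicity. Self-association parameter PA defined as the maximal change in retention time from 5°C, after subtracting that of monomeric random-coil control peptide C.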

[2] = system: human erythrocytes; test: Hemolytic activity (MHC), Protocol A, 12 hours; conditions: for minimal hemolytic concentration (MHC): incubation for 12 hours at 37° C. (Tables 7 and 8)
Description: Measurement of Hemolytic Activity—Protocol A: Peptide samples were added to 1% human erythrocytes in phosphate buffered saline (0.08M NaCl; 0.043M Na2PO4; 0.011M KH2PO4) and reactions were incubated at 37° C. for 12 hours in microtiter plates. Peptide samples were diluted 2 fold in order to determine the concentration that produced no hemolysis. […] Hemoglobin release was determined spectrophotometrically at 562 nm. The hemolytic titer was the highest 2-fold dilution of the peptide that still caused release of hemoglobin from erythrocytes. The control for no release of hemoglobin was a sample of 1% erythrocytes without any peptide added. […] Peptide samples were diluted 2 fold in order to determine the concentration that produced no hemolysis. […] Hemoglobin release was determined spectrophotometrically at 570 nm. The hemolytic titer was the highest 2-fold dilution of the peptide that still caused release of hemoglobin from erythrocytes. The control for no release of hemoglobin was a sample of 1% erythrocytes without any peptide added.

[3] = system: gram-negative bacteria; test: MIC, microtiter dilution, Gram-negative bacteria (geometric mean of 6 strains); assay type: cell-based; conditions: for MIC (μg/ml) GM: geometric mean of MIC values from all 6 Gram-negative strains of Table 11; for MIC (μg/ml) Gram-negative: geometric mean MIC, Table 9; for geometric mean MIC against Gram-negative bacteria: 6 strains of Table 7
Description: The geometric mean MIC values from 6 microbial strains in this table were calculated to provide an overall evaluation of antimicrobial activity against gram-negative bacteria.
In Table 11, geometric mean MIC was calculated to provide an overall view of antimicrobial activity of the peptides against Gram-negative bacteria and was also used to calculate the therapeutic index.
(§1) Measurement of Antimicrobial Activity—Minimal inhibitory concentrations (MICs) were determined using a standard microtiter dilution method in LB (Luria-Bertani) no-salt medium (10 g of tryptone and 5 g of yeast extract per liter). Briefly, cells were grown overnight at 37° C. in LB and diluted in the same medium. […] Plates were incubated at 37° C. for 24 hours and MICs determined as the lowest peptide concentration that inhibited growth. Alternatively, minimal inhibitory concentrations were determined using a standard microtiter dilution method in a Mueller-Hinton (MH) medium. Briefly, cells were grown overnight at 37° C. in MH broth and diluted in the same medium. […] Plates were incubated at 37° C. for 24 hours and MICs determined as the lowest peptide concentration that inhibited growth. However, for MIC determination of Pseudomonas aeruginosa clinical isolates, brain heart infusion (BH1) medium was used instead of MH broth. In addition, the bacteria were diluted to a final inoculum of 1×10^6 colony-forming units/ml.

[4] = system: gram-positive bacteria
Description: as §1

[5] = minimal hemolytic concentration on human red blood cells (hRBC), Table 9

Molecule | tR (min) 5° C. [1] | tR (min) 80° C. [1] | Hydrophobicity tR5 [1] | Hydrophobicity tR80 [1] | tR (min) Max [1] | PA (min) association parameter [1] | PA (dimerization / self-association parameter) [1] | ΔtR (X-NVL) (min) 5° C. ([1]; non-polar face substitutions) | ΔtR (X-NVL) (min) 80° C. ([1]; non-polar face substitutions) | minimal hemolytic concentration (MHC) [2] | MIC (μg/ml) GM [3] | MIC (μg/ml) Gram-negative [3] | MIC (μg/ml) Gram-positive [4] | MHC [2, 5] | also measured
CC[C@H](C)[C@H](NC(=O)[C@H](C)NC(=O)[C@H](CCCCN)NC(=O)[C@H](CC(C)C)NC(=O)[C@H](C)NC(=O)[C@@H](NC(=O)[C@H](Cc1c[nH]cn1)NC(=O)[C@H](CC(C)C)NC(=O)[C@@H](NC(=O)[C@@H](NC(=O)[C@H](CCCCN)NC(=O)[C@@H](C)NC(=O)[C@H](C)NC(=O)[C@H](CO)NC(=O)[C@H](CCCCN)NC(=O)[C@H](Cc1ccccc1)NC(=O)[C@@H](NC(=O)[C@H](CCCCN)NC(=O)[C@H](CC(C)C)NC(=O)[C@H](Cc1ccccc1)NC(=O)[C@H](CO)NC(=O)[C@H](CCCCN)NC(=O)[C@H](Cc1c[nH]c2ccccc12)NC(=O)[C@H](CCCCN)NC(C)=O)[C@@H](C)O)[C@@H](C)O)C(C)C)[C@@H](C)O)C(=O)N[C@@H](CO)C(=O)N[C@@H](CO)C(N)=O [NAD] | 40.49 min | 38.00 min | 81.2 min | 73.2 min | 41.01 min | 2.19 min | 4.1 | -7.61 min | -7.83 min | 250 µg/mL | 3.1 µg/mL (≈ 1.06 µM) |  |  |  | fold decrease in hemolytic activity compared to the L-diastereomer [2]: 8; MIC (μg/ml) GM [4]: 2.8 µg/mL (≈ 0.954 µM)
CC[C@H](C)[C@H](NC(=O)[C@H](C)NC(=O)[C@H](CCCCN)NC(=O)[C@H](CC(C)C)NC(=O)[C@H](C)NC(=O)[C@@H](NC(=O)[C@H](Cc1c[nH]cn1)NC(=O)[C@H](CC(C)C)NC(=O)[C@@H](NC(=O)[C@@H](NC(=O)[C@H](CCCCN)NC(=O)[C@@H](CO)NC(=O)[C@H](C)NC(=O)[C@H](CO)NC(=O)[C@H](CCCCN)NC(=O)[C@H](Cc1ccccc1)NC(=O)[C@@H](NC(=O)[C@H](CCCCN)NC(=O)[C@H](CC(C)C)NC(=O)[C@H](Cc1ccccc1)NC(=O)[C@H](CO)NC(=O)[C@H](CCCCN)NC(=O)[C@H](Cc1c[nH]c2ccccc12)NC(=O)[C@H](CCCCN)NC(C)=O)[C@@H](C)O)[C@@H](C)O)C(C)C)[C@@H](C)O)C(=O)N[C@@H](CO)C(=O)N[C@@H](CO)C(N)=O [NSD] (Ac-KWKSFLKTFKSA[dS]KTVLHTALKAISS-NH2) | 37.02 min | 34.08 min |  |  | 37.12 min | 1.46 min |  | -11.08 min | -11.75 min |  |  | 6.3 µg/mL (≈ 2.14 µM) | 16.0 µg/mL (≈ 5.42 µM) |  | MHC [2]: >250.0 µg/mL
Ac-KWKSFLKTFKSAGKTVLHTALKAISS-NH2 [NG] | 39.96 min | 36.74 min |  |  | 40.22 min | 1.64 min |  | -8.14 min | -9.09 min | 125 µg/mL |  | 4.1 µg/mL | 7.4 µg/mL | 125.0 µg/mL | 
CC[C@H](C)[C@H](NC(=O)[C@H](C)NC(=O)[C@H](CCCCN)NC(=O)[C@H](CC(C)C)NC(=O)[C@H](C)NC(=O)[C@@H](NC(=O)[C@H](Cc1c[nH]cn1)NC(=O)[C@H](CC(C)C)NC(=O)[C@@H](NC(=O)[C@@H](NC(=O)[C@H](CCCCN)NC(=O)[C@@H](NC(=O)[C@H](C)NC(=O)[C@H](NC(=O)[C@H](CCCCN)NC(=O)[C@H](Cc1ccccc1)NC(=O)[C@@H](NC(=O)[C@H](CCCCN)NC(=O)[C@H](CC(C)C)NC(=O)[C@H](Cc1ccccc1)NC(=O)[C@H](CO)NC(=O)[C@H](CCCCN)NC(=O)[C@H](Cc1c[nH]c2ccccc12)NC(=O)[C@H](CCCCN)NC(C)=O)[C@@H](C)O)C(C)C)C(C)C)[C@@H](C)O)C(C)C)[C@@H](C)O)C(=O)N[C@@H](CO)C(=O)N[C@@H](CO)C(N)=O [PVD] (Ac-KWKSFLKTFK[dV]AVKTVLHTALKAISS-NH2) | 42.96 min | 40.51 min |  |  | 43.83 min | 2.54 min |  |  |  | 125 µg/mL |  | 6.1 µg/mL (≈ 2.05 µM) | 6.6 µg/mL (≈ 2.22 µM) | 125.0 µg/mL | ΔtR (X-PSL) (min) 5° C. ([1]; polar face substitutions): -5.14 min; ΔtR (X-PSL) (min) 80° C. ([1]; polar face substitutions): -5.32 min; fold decrease in hemolytic activity compared to the L-diastereomer [2]: 16
CC[C@H](C)[C@H](NC(=O)[C@H](C)NC(=O)[C@H](CCCCN)NC(=O)[C@H](CC(C)C)NC(=O)[C@H](C)NC(=O)[C@@H](NC(=O)[C@H](Cc1c[nH]cn1)NC(=O)[C@H](CC(C)C)NC(=O)[C@@H](NC(=O)[C@@H](NC(=O)[C@H](CCCCN)NC(=O)[C@@H](NC(=O)[C@H](C)NC(=O)[C@H](CO)NC(=O)[C@H](CCCCN)NC(=O)[C@H](Cc1ccccc1)NC(=O)[C@@H](NC(=O)[C@H](CCCCN)NC(=O)[C@H](CC(C)C)NC(=O)[C@H](Cc1ccccc1)NC(=O)[C@H](CO)NC(=O)[C@H](CCCCN)NC(=O)[C@H](Cc1c[nH]c2ccccc12)NC(=O)[C@H](CCCCN)NC(C)=O)[C@@H](C)O)C(C)C)[C@@H](C)O)C(C)C)[C@@H](C)O)C(=O)N[C@@H](CO)C(=O)N[C@@H](CO)C(N)=O [Peptide V681, reference compound] | 48.10 min | 45.83 min | 96.6 min | 88.8 min | 49.99 min | 3.63 min | 7.2 | 0 min | 0 min | 15.6 µg/mL | 5.0 µg/mL (≈ 1.69 µM) | 8.8 µg/mL (≈ 2.97 µM) | 6.3 µg/mL (≈ 2.13 µM) | 15.6 µg/mL | overall hydrophobicity change relative to PVL ([1]; RP-HPLC retention time difference at 80° C., polar face substitutions): -0.35 min; ΔtR (X-PSL) (min) 5° C. ([1]; polar face substitutions): 0 min; ΔtR (X-PSL) (min) 80° C. ([1]; polar face substitutions): 0 min; MIC (μg/ml) GM [4]: 4.4 µg/mL (≈ 1.49 µM); geometric mean MIC against gram-positive bacteria [4]: 6.3 µg/mL
CC[C@H](C)[C@H](NC(=O)[C@H](C)NC(=O)[C@H](CCCCN)NC(=O)[C@H](CC(C)C)NC(=O)[C@H](C)NC(=O)[C@@H](NC(=O)[C@H](Cc1cnc[nH]1)NC(=O)[C@H](CC(C)C)NC(=O)[C@@H](NC(=O)[C@@H](NC(=O)[C@H](CCCCN)NC(=O)[C@H](CCCCN)NC(=O)[C@H](C)NC(=O)[C@H](CO)NC(=O)[C@H](CCCCN)NC(=O)[C@H](Cc1ccccc1)NC(=O)[C@@H](NC(=O)[C@H](CCCCN)NC(=O)[C@H](CC(C)C)NC(=O)[C@H](Cc1ccccc1)NC(=O)[C@H](CO)NC(=O)[C@H](CCCCN)NC(=O)[C@H](Cc1c[nH]c2ccccc12)NC(=O)[C@H](CCCCN)NC(C)=O)[C@@H](C)O)[C@@H](C)O)C(C)C)[C@@H](C)O)C(=O)N[C@@H](CO)C(=O)N[C@@H](CO)C(N)=O [NKL] | 36.85 min | 33.22 min | 74.9 min | 64.7 min | 36.91 min | 1.10 min | 2.1 | -11.25 min | -12.61 min |  | 3.9 µg/mL (≈ 1.3 µM) |  |  |  | decrease in hydrophobicity relative to NVL (V681) ([1]; RP-HPLC retention time difference at 80° C., non-polar face substitutions): -12.61 min; fold decrease in hemolytic activity compared to V681 ([2]; 12 hours): > 32; geometric mean MIC against Gram-negative bacteria [3]: 3.1 µg/mL; fold improvement on the average MIC compared to V681 ([3]; gram-negative bacteria, geometric mean comparison, Table 7): 2.8; MIC (μg/ml) GM ([4]; geometric mean of MIC values from all 6 gram-positive strains of Table 12): 7.9 µg/mL (≈ 2.64 µM)
Ac-KWKSFLKTFKSALKTVLHTALKAISS-NH2 [NLL] | 48.16 min | 47.02 min |  |  | 50.45 min | 4.22 min |  | 0.06 min | 1.19 min | 7.8 µg/mL |  |  |  |  | geometric mean MIC against Gram-negative bacteria [3]: 12.7 µg/mL
